# Results from patent publication US9738902B2, “Modified PYR/PYL receptors activated by ligands” (priority 2013, dated 2017).
# Columns and labels:
# [1] = system: 35S::GFP-PYR1 expressing transgenic plants; experiment: thermal imaging of leaf temperature; format: in vivo, Arabidopsis; conditions: 35S::GFP-PYR1, 2 μM, 24 hours
# Procedure: (§1) To investigate if the system is sufficient to control ABA responses in vegetative tissues, we generated homozygous transgenic lines for two 35S-driven lines (E15 and E16) and 2 RBCS-driven lines (F29 and F34). These materials were grown along side wild type plants and a previously constructed 35S::GFP-PYR1 over expression line (Park et al., 2009). These plants were grown until three weeks old and then treated with a solution containing either 2 μM mandipropamid and 0.02% Silwet or a mock treatment containing 0.02% Silwet and the mandipropamid carrier solvent (DMSO). 24 hours after treatment, the leaf temperatures were examined using a thermal imaging camera. It is well known that ABA-induced guard cell closure reduces transpiration, which leads to increases in leaf temperatures. […] Since guard cell aperture is the primary determinant of transpiration rates, thermal imaging is a useful way to indirectly infer relative transpiration rates and guard cell aperture at the whole plant level. As is shown in FIG. 3, mandipropamid treatment of homozygous PYR1^MANDI expressing transgenic plants leads to large changes in leaf temperature (˜2° C. increase) within 24 hours of treatment.
# [2] = system: wild type plants; experiment: thermal imaging of leaf temperature; format: in vivo, Arabidopsis; conditions: 2 μM, 24 hours
# Procedure: as §1
# [3] = biological target: T1, PYR1 Y58H K59R V81I F108A S122G V164I (Arabidopsis thaliana, UniProt O49686, F108A/K59R/S122G/V164I/V81I/Y58H); experiment: Y2H Combinatorial Mutagenesis II (HAB1, X-gal); format: cell-based
# T1 construct: expressed in transfected cells; host or cells: S. cerevisiae Y190 pACT-HAB1
# T1 sequence (O49686 whole entry Y58H/K59R/V81I/F108A/S122G/V164I): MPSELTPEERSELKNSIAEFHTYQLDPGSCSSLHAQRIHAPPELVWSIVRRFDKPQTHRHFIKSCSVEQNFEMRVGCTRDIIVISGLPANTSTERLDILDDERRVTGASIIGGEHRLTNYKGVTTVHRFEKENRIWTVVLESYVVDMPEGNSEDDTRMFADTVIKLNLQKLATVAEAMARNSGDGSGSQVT
# T1 sequence (Q9CAJ0 23-511 partner): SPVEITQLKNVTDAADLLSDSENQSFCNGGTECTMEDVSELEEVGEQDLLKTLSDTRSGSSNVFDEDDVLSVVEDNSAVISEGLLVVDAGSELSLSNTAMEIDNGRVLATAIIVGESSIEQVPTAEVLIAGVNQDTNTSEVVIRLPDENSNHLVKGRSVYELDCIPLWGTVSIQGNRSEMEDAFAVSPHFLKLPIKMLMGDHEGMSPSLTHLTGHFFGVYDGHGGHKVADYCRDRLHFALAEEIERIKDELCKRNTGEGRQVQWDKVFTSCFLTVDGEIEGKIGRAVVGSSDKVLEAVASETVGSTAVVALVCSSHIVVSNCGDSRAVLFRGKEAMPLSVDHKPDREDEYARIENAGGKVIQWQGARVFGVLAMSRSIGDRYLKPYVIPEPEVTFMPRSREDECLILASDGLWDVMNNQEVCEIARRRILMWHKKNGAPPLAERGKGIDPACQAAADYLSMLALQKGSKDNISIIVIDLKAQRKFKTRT
# Source text: (§2) Both of the above optimization experiments led to the identification of the following mutations that, when introduced one at a time, enhance the mandipropamid sensitivity of PYR1^K59R,F108A,S122G: Y58H, V81C, V81I, V81T, V83L, L87A, F159L, F159M, F159V, A160V and V164I. Given that these each enhance sensitivity on their own, we tested if combinations of these mutations might generate more sensitive receptors. Mutagenic primers for each of the mutations were designed and used simultaneously with the QuickChange Lightning Multi Site-Directed Mutagenesis kit (Agilent, USA) with PYR1^K59R,F108A,S122G template DNA. Individual clones were sequenced to identify bona fide combination mutants, which were transformed into the Y190 pACT-HAB1 yeast strain and assayed for mandipropamid sensitivity. These efforts led to the identification of several improved receptors (“Combinatorial Mutagenesis Screen II”, Table 1), including PYR1^Y58H,K59R,V81I,F108A,S122G,F159L, a hextuple mutant that we have named PYR1^MANDI. Yeast reporter strains expressing this mutant are responsive to mandipropamid concentrations as low as 2 nM (Table 1). Thus, the 5-step mutagenesis protocol we followed led to the construction of a mandipropamid responsive receptor with nanomolar sensitivity.
# [4] = biological target: T2, PYR1 Y58H K59R V81I F108A S122G (Arabidopsis thaliana, UniProt O49686, F108A/K59R/S122G/V81I/Y58H); experiment: Y2H Combinatorial Mutagenesis II (HAB1, X-gal); format: cell-based
# T2 construct: expressed in transfected cells; host or cells: S. cerevisiae Y190 pACT-HAB1
# T2 sequence (O49686 whole entry Y58H/K59R/V81I/F108A/S122G): as the sequence (O49686 whole entry Y58H/K59R/V81I/F108A/S122G/V164I) above, with I164V counted along it
# T2 sequence (Q9CAJ0 23-511 partner): as the sequence (Q9CAJ0 23-511 partner) above
# Source text: as §2
# [5] = biological target: T3, PYR1 Y58H K59R V81I F108A S122G F150L (PYR1^MANDI) (Arabidopsis thaliana, UniProt O49686, F108A/F159L/K59R/S122G/V81I/Y58H); experiment: Y2H Combinatorial Mutagenesis II (HAB1, X-gal); format: cell-based; conditions: PYR1^MANDI, yeast two hybrid
# T3 construct: expressed in transfected cells; host or cells: S. cerevisiae Y190 pACT-HAB1
# T3 sequence (O49686 whole entry Y58H/K59R/V81I/F108A/S122G/F159L): as the sequence (O49686 whole entry Y58H/K59R/V81I/F108A/S122G/V164I) above, with F159L, I164V counted along it
# T3 sequence (Q9CAJ0 23-511 partner): as the sequence (Q9CAJ0 23-511 partner) above
# Source text: as §2
# [6] = biological target: T4, PYR1 Y58H K59R V81I F108A S122G (PYR1^MANDI) (Arabidopsis thaliana, UniProt O49686, F108A/F159L/K59R/S122G/V81I/Y58H); experiment: Y2H Combinatorial Mutagenesis II (HAB1, X-gal); format: cell-based; conditions: Y58H K59R V81I F108A S122G F150L
# T4 construct: expressed in transfected cells; host or cells: S. cerevisiae Y190 pACT-HAB1
# T4 sequence (O49686 whole entry Y58H/K59R/V81I/F108A/S122G/F159L): as the sequence (O49686 whole entry Y58H/K59R/V81I/F108A/S122G/V164I) above, with F159L, I164V counted along it
# T4 sequence (Q9CAJ0 23-511 partner): as the sequence (Q9CAJ0 23-511 partner) above
# Source text: as §2
# [7] = biological target: T5, PYR1 K59R V81I F108A S122G A160V (Arabidopsis thaliana, UniProt O49686, A160V/F108A/K59R/S122G/V81I); experiment: Y2H Combinatorial Mutagenesis II (HAB1, X-gal); format: cell-based
# T5 construct: expressed in transfected cells; host or cells: S. cerevisiae Y190 pACT-HAB1
# T5 sequence (O49686 whole entry K59R/V81I/F108A/S122G/A160V): as the sequence (O49686 whole entry Y58H/K59R/V81I/F108A/S122G/V164I) above, with H58Y, A160V, I164V counted along it
# T5 sequence (Q9CAJ0 23-511 partner): as the sequence (Q9CAJ0 23-511 partner) above
# Source text: as §2
# [8] = biological target: T6, PYR1 Y58H K59R V83L F108A S122G (Arabidopsis thaliana, UniProt O49686, F108A/K59R/S122G/V83L/Y58H); experiment: Y2H Combinatorial Mutagenesis II (HAB1, X-gal); format: cell-based
# T6 construct: expressed in transfected cells; host or cells: S. cerevisiae Y190 pACT-HAB1
# T6 sequence (O49686 whole entry Y58H/K59R/V83L/F108A/S122G): as the sequence (O49686 whole entry Y58H/K59R/V81I/F108A/S122G/V164I) above, with I81V, V83L, I164V counted along it
# T6 sequence (Q9CAJ0 23-511 partner): as the sequence (Q9CAJ0 23-511 partner) above
# Source text: as §2
structure (smiles),measurement,setting,value
"C#CCOc1ccc(CCNC(=O)C(OCC#C)c2ccc(Cl)cc2)cc1OC (centres unmarked) [Mandipropamid, mandipropamid]",leaf temperature effect of mandipropamid,[1],not observed
same,leaf temperature effect of mandipropamid,[2],not observed
same,Threshold,[3],0.01 µM
same,Threshold,[4],0.05 µM
same,lowest mandipropamid concentration with detectable PYR1^MANDI-HAB1 interaction in yeast reporter strain,[5],2 nM
same,Threshold,[6],0.002 µM
same,Threshold,[7],0.05 µM
same,Threshold,[8],0.01 µM
